The source of these data is patent US20220184143A1, “COMPOSITIONS AND METHODS OF MODULATING CASOTRANSMITTER SIGNALING” (CASE WESTERN RESERVE UNIVERSITY, priority 2019, published 2022).

For data set [1], the target named is T1, AGO2 and GW182 (Homo sapiens, UniProt Q9UKV8).
T1 construct: host or cells: HEK293
Briefly: Co-immunoprecipitation of AGO2 and GW182 in HEK293 cells. In kind it is cell-based. The protocol: Transfected HEK293 or HeLa cells were cultured at 37° C. in 15 cm tissue culture-treated dishes. They were then treated with either 500 μM DETA-NOate (t1/2=20 hr) for 16 hours, 100 μM CysNO for 10 min, or 200 μM dipropylenetriamine (DPTA)-NONOate (Cayman Chemicals, Ann Arbor, Mich.) for 6 hours. Cells were washed once with DPBS without calcium chloride and magnesium chloride from Gibco® (Life Technologies, Carlsbad, Calif.) and incubated on ice for 10 minutes in IP lysis/wash buffer (ThermoFisher Scientific, Waltham, Mass.) with added EDTA-free protease inhibitor tablet (Roche, Basel, Switzerland). This was followed by centrifugation at 14,000 g for 10 minutes to collect the supernatant. The lysates were then used for immunoprecipitation experiments.
For HEK293 cells, all steps were performed either on ice or in the cold room at 4° C. Immunoprecipitations (IP) were performed with 3 mg of total lysate that was pre-cleared using a Pierce™ control agarose resin (ThermoFisher Scientific, Waltham, Mass.), after which 10 μg of IP antibody was added, and samples were incubated overnight at 4° C. with rotation. The next day, 30 μl of protein A/G Sepharose (ThermoFisher Scientific, Waltham, Mass.) was added and the samples were incubated for 2 hours at 4° C. […] The eluates were neutralized by adding 3 μl of 1M Tris-HCl, pH 8.0 and analyzed by western blotting. […]

In data set [2] the target is T2, AGO2 (Homo sapiens, UniProt Q9UKV8, C691S).
T2 construct: expressed in transfected cells; host or cells: HeLa
T2 sequence (Q9UKV8 whole entry C691S): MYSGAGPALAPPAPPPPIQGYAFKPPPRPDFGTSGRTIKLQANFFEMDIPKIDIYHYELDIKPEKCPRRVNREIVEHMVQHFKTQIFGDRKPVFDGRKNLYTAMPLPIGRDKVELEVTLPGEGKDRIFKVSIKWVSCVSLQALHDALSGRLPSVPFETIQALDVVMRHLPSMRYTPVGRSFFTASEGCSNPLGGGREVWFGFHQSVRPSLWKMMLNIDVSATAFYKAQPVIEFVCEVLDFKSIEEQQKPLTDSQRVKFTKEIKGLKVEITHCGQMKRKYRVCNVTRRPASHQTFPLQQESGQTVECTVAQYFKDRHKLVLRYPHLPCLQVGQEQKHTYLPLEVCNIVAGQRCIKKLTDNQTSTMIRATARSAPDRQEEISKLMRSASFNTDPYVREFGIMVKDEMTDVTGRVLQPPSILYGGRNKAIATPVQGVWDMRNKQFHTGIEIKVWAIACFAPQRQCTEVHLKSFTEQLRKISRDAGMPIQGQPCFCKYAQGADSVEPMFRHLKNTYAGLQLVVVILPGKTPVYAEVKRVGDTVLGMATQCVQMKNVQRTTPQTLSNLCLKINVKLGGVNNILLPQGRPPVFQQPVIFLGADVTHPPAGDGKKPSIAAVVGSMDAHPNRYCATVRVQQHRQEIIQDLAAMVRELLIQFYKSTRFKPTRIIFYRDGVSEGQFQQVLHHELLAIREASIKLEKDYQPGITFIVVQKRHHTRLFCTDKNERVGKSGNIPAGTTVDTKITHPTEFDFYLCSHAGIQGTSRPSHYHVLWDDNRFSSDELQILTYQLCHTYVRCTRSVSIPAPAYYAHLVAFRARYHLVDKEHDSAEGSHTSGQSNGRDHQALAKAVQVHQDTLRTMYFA
Briefly: let-7 luciferase reporter miRNA activity assay in HeLa cells. The conditions noted are these: C691S AGO2, Hmga2 3'UTR reporter. Format: cell-based. The protocol: (§1) 0.5×10^5 cells/well Hela cells were plated in wells of 24 well dishes. They were transiently transfected the next day with 2 μg of either WT-AGO2 or C691S-AGO2, plus 100 ng of either Hmga2 3′UTR-WT luciferase (Luc-wt) or Hmga2 3′UTR-mutant7 luciferase (Luc-m7) control. 100 ng pMax-GFP was also co-transfected to normalize for transfection efficiency. Transfections were carried out using Lipofectamine® 2000 transfection reagent (ThermoFisher Scientific, Waltham, Mass.). Six hours after transfection, the NO donor DETA-NONOate (Cayman Chemicals, Ann Arbor, Mich.) was added at 500 μM. The cells were harvested 24 hours post-transfection, using 1× Passive Lysis Buffer (Promega, Madison, Wis.). Renilla luciferase activity was measuredusing the Renilla Luciferase Assay System (Promega, Madison, Wis.) and a Veritas™ microplate luminometer (Turner BioSystems, Sunnyvale, Calif.) and normalized to GFP readings measured using a BMG FluoStar Galaxy microplate reader. Hmga2 3′UTR WT luciferase (Luc-wt) and Hmga2 3′UTR m7 luciferase (Luc-m7) were gifts from David Bartel (Addgene plasmid #14785 and #14788, respectively)).

The conditions of data set [3]: cited from earlier work.
The target in data set [4] is T3, AGO2 (Homo sapiens, UniProt Q9UKV8). Description: AGO2 immunoblot following SNO-RAC in HEK293 cells. In kind it is cell-based. Details: endogenous in cells; host or cells: HEK293. As for the experimental part: S-nitrosylated proteins were isolated by SNO-RAC as described. In brief, cells were lysed in HEN buffer additionally containing 1% NP-40, 50 mM NaCl and protease inhibitors. Free cysteines were blocked with S-Methyl methanethiosulfonate (MMTS). After acetone precipitation and multiple 70% acetone washes, proteins were re-suspended in HEN buffer containing 1% SDS. 50 μl thiopropyl Sepharose 6B resin (GE, Chicago, Ill.) and 50 mM sodium ascorbate were added, followed by rotation in the dark for 4 hr at room temperature. Following multiple washes, the bound proteins were eluted in 2×SDS-PAGE loading buffer containing 10% β-mercaptoethanol. Following separation on reducing pre-cast 4-20% SDS-PAGE gels (Bio-Rad Laboratories, Hercules, Calif.), individual SNO-proteins were detected by Western blotting using specific antibodies (anti-FLAG, anti-myc, anti-ALG-1, anti-AGO2, anti-GW182) or the gel was stained using the SilverQuest™ silver staining kit (ThermoFisher Scientific, Waltham, Mass.) or Imperial™ Protein Stain (ThermoFisher Scientific, Waltham, Mass.), per manufacturer instructions.
T3 sequence (Q9UKV8 whole entry): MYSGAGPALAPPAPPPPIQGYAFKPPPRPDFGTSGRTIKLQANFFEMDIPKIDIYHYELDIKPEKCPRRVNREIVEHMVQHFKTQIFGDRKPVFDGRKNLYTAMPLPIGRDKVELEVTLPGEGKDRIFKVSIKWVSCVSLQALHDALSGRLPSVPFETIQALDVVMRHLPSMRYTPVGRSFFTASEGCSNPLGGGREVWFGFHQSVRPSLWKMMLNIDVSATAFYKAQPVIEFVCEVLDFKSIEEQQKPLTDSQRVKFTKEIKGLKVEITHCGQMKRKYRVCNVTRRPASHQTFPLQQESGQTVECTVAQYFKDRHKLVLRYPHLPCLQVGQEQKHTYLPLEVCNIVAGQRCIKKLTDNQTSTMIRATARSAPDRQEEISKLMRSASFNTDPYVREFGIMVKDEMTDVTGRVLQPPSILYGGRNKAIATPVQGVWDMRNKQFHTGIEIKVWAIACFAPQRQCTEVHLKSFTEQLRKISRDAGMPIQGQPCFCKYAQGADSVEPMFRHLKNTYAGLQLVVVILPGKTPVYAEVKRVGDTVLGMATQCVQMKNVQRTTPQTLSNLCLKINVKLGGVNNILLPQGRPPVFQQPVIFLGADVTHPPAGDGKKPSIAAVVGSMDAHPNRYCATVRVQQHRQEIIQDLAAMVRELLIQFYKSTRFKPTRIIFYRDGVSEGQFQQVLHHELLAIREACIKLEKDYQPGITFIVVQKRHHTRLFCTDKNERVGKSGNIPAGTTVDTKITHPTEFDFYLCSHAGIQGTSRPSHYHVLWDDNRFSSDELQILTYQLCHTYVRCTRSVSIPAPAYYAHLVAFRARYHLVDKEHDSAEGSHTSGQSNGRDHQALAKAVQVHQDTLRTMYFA
Transfected HEK293 or HeLa cells were cultured at 37° C. in 15 cm tissue culture-treated dishes. They were then treated with either 500 μM DETA-NOate (t1/2=20 hr) for 16 hours, 100 μM CysNO for 10 min, or 200 μM dipropylenetriamine (DPTA)-NONOate (Cayman Chemicals, Ann Arbor, Mich.) for 6 hours. […]
(A western blot detects proteins with antibodies after separation by electrophoresis.)

Data set [5] deals with T3, AGO2. Description: let-7 luciferase reporter miRNA activity assay in HeLa cells. Format: cell-based. Details: expressed in transfected cells; host or cells: HeLa. To be noted: WT AGO2, Hmga2 3'UTR reporter. The protocol: as §1
A general note: Reporter assays use an easily measured gene product as a stand-in for the process of interest.

T1 sequence (Q9UKV8 whole entry): as above

With `NCCN(CCN)/[N+]([O-])=N/O` [DETA-NO, DETA-NONOate], the “association of WT AGO2 with GW182” value in data set [1] (co-immunoprecipitation, transfected HEK293 cells) is “strongly inhibited”. Besides, the “interaction between endogenous AGO2 and GW182” value in data set [1] (cultured mammalian cells) is listed as “inhibited”. For the same compound, in data set [2], the “mutant C691S AGO2 activity” value is recorded as “little effect”. The t1/2 in data set [3] was 20 h. Also, the “S-nitrosylation of AGO2 by endogenous eNOS” value in data set [4] (HEK293 cells, 500 μM) was “enhanced”. For the same compound, the “WT AGO2 repression of luciferase target” value in data set [5] was “repressed its target poorly”.
`N[C@@H](CSN=O)C(=O)O` [CysNO, S-nitrosocysteine]: the “S-nitrosylation of WT AGO2” value in data set [4] (HEK293 cells transfected with WT AGO2, 100 μM) is on record as “strongly S-nitrosylated”.
